# What was measured:
# Assay in all cases: HMF sulfoconjugation assay
# Type in all cases: biochemical
# hSULT1E1 = molecular target: T1, hSULT1E1 (Homo sapiens, UniProt P49888)
# T1 construct: made in house; host or cells: Salmonella typhimurium TA1538 (cytosolic fraction, not purified)
# T1 sequence (P49888 1-294): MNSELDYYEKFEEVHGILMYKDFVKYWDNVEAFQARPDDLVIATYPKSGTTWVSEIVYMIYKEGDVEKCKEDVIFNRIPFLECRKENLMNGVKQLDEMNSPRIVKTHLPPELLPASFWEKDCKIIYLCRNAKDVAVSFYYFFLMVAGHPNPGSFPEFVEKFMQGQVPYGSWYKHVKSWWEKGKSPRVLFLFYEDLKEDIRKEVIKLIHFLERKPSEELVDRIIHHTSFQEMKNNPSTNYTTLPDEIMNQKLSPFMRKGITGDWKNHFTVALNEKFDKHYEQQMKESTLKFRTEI
# Outline: (§1)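 Cytosols of S. typhimurium TA1538 expressing single SULT forms (25–200 µg protein) were incubated with varied HMF, 50 µM PAPS, 5 mM MgCl2 in 50 mM potassium phosphate pH 7.4 at 37 °C for 30 min. SMF formed was quantified by UPLC-MS/MS against an external calibration line.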
# mSult2a1 = molecular target: T2, mSult2a1 (Mus musculus, UniProt P52843)
# T2 construct: made in house; host or cells: Salmonella typhimurium TA1538 (cytosolic fraction, enzyme not purified)
# T2 sequence (P52843 1-285): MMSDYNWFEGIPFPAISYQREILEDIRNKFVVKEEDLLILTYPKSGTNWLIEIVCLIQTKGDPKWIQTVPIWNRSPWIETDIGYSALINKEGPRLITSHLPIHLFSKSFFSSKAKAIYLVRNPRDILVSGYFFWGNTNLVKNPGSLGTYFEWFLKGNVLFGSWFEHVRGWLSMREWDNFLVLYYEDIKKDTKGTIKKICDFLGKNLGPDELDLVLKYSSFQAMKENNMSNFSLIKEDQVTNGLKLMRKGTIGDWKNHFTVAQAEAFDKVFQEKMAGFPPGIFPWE
# Outline: as §1
# rSult1c2 = molecular target: T3, rSult1c2 (Rattus norvegicus, UniProt Q9WUW8)
# T3 construct: made in house; host or cells: Salmonella typhimurium TA1538 (cytosolic fraction, enzyme not purified)
# T3 sequence (Q9WUW8 whole entry): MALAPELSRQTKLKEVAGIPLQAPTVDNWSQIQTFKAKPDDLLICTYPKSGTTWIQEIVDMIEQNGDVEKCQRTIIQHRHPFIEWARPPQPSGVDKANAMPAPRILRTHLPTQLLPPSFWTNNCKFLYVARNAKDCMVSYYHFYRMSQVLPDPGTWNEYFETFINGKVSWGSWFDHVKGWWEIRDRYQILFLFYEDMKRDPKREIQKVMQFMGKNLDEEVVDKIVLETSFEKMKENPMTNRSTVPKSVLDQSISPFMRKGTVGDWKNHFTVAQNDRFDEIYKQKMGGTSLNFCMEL
# Outline: as §1
# hSULT2B1b = molecular target: T4, hSULT2B1b (Homo sapiens, UniProt O00204)
# T4 construct: made in house; host or cells: Salmonella typhimurium TA1538 (cytosolic fraction, not purified)
# T4 sequence (O00204 1-365): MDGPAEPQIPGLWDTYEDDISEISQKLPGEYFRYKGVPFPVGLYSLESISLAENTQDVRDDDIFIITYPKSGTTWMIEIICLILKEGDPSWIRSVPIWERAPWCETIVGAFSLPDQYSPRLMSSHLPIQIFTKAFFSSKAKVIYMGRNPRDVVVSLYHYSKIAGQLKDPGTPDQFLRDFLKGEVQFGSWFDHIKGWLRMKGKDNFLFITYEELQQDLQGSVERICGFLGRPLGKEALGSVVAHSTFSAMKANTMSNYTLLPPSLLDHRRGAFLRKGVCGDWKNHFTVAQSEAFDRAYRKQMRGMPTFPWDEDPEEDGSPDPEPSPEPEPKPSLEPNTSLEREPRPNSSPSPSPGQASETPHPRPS
# Outline: as §1
structure (smiles),measurement,setting,value
"O=Cc1ccc(CO)o1 [HMF, 5-Hydroxymethylfurfural]",Rate of sulfoconjugation,hSULT1E1; 0.1 mM HMF,<0.5 pmol/mg/min
same,Rate of sulfoconjugation,hSULT1E1; 1 mM HMF,1.0 ± 0.2 pmol/mg/min
same,Rate of sulfoconjugation,hSULT1E1; 10 mM HMF,5.7 ± 0.8 pmol/mg/min
same,Rate of sulfoconjugation,hSULT1E1; 100 mM HMF,7.7 ± 1.2 pmol/mg/min
same,Rate of sulfoconjugation,mSult2a1; 0.1 mM HMF,<0.5 pmol/mg/min
same,Rate of sulfoconjugation,mSult2a1; 1 mM HMF,1.3 ± 0.2 pmol/mg/min
same,Rate of sulfoconjugation,mSult2a1; 10 mM HMF,9.0 ± 0.9 pmol/mg/min
same,Rate of sulfoconjugation,mSult2a1; 100 mM HMF,13.1 ± 1.7 pmol/mg/min
same,Rate of sulfoconjugation,rSult1c2; 0.1 mM HMF,<0.5 pmol/mg/min
same,Rate of sulfoconjugation,rSult1c2; 1 mM HMF,<0.5 pmol/mg/min
same,Rate of sulfoconjugation,rSult1c2; 10 mM HMF,2.3 ± 0.2 pmol/mg/min
same,Rate of sulfoconjugation,rSult1c2; 100 mM HMF,15.0 ± 1.1 pmol/mg/min
same,Rate of sulfoconjugation,hSULT2B1b; 0.1 mM HMF,<0.5 pmol/mg/min
same,Rate of sulfoconjugation,hSULT2B1b; 1 mM HMF,<0.5 pmol/mg/min
same,Rate of sulfoconjugation,hSULT2B1b; 10 mM HMF,<0.5 pmol/mg/min
same,Rate of sulfoconjugation,hSULT2B1b; 100 mM HMF,<0.5 pmol/mg/min
